Experiments:
Format in all cases: in vivo
Bromus tectorum [1] = test: post-emergent herbicidal activity test
Description: (§1) The post-emergent tests were conducted as follows. The active ingredients are applied in spray form to two or three-week old specimens of various plant species. The spray, a solution or wettable powder suspension containing the appropriate rate of active ingredient to give the desired test rate and a surfactant, is applied to the plants. The treated plants are placed in a greenhouse and unless otherwise noted approximately four weeks later the effects are observed and recorded.

Smartweed [2] = test: post-emergent herbicidal activity test
Description: as §1

Quackgrass [3] = test: post-emergent herbicidal activity test
Description: as §1

Lambsquarter [4] = test: post-emergent herbicidal activity test
Description: as §1

Morningglory [5] = test: post-emergent herbicidal activity test
Description: as §1

Velvetleaf [6] = test: post-emergent herbicidal activity test
Description: as §1

Cocklebur [7] = test: post-emergent herbicidal activity test
Description: as §1

Nutsedge [8] = test: post-emergent herbicidal activity test
Description: as §1

Barnyard grass [9] = test: post-emergent herbicidal activity test
Description: as §1

Johnsongrass [10] = test: post-emergent herbicidal activity test
Description: as §1

Canada Thistle [11] = test: post-emergent herbicidal activity test
Description: as §1

Bromus tectorum [12] = test: pre-emergent herbicidal activity test
Description: (§2) Table II summarizes results of tests conducted to determine the pre-emergent as well as the post-emergent herbicidal activity of the compounds. The pre-emergent test was conducted as follows:
(§3) A good grade of top soil was placed in aluminum pans and compacted to a depth of three-eighths to one-half inch from the top of the pan. On the top of the soil was placed a predetermined number of seeds or vegetative propagules of various plant species. The soil required to level fill the pans after seeding or adding vegetative propagules was weighed into a pan. A known amount of the active ingredient applied in a solvent or as a wettable powder and the soil were thoroughly mixed, and used as a cover layer for prepared pans. After treatment the pans were moved into a greenhouse bench where they were watered from below as needed to give adequate moisture for germination and growth.
(§4) A herbicial rating code was used to signify the extent of phytotoxicity of each species. The rating are defined as follows: […]

Smartweed [13] = test: pre-emergent herbicidal activity test
Description: as §2, §3, §4

Quackgrass [14] = test: pre-emergent herbicidal activity test
Description: as §2, §3, §4

Lambsquarter [15] = test: pre-emergent herbicidal activity test
Description: as §2, §3, §4

Morningglory [16] = test: pre-emergent herbicidal activity test
Description: as §2, §3, §4

Velvetleaf [17] = test: pre-emergent herbicidal activity test
Description: as §2, §3, §4

Cocklebur [18] = test: pre-emergent herbicidal activity test
Description: as §2, §3, §4

Nutsedge [19] = test: pre-emergent herbicidal activity test
Description: as §2, §3, §4

Barnyard grass [20] = test: pre-emergent herbicidal activity test
Description: as §2, §3, §4

Johnsongrass [21] = test: pre-emergent herbicidal activity test
Description: as §2, §3, §4

Canada Thistle [22] = test: pre-emergent herbicidal activity test
Description: as §2, §3, §4

[23] = 11.2 Kg/Ha, approximately four weeks later
[24] = *11.2 Kg/Ha, observed approximately 14 days after treatment
[25] = 11.2 Kg/Ha, approximately 28 days after seeding and treating
Further: ranges in brackets are in %.

CCOC(=O)c1cn(C)nc1-c1cccc(C(F)(F)F)c1 [Example 12]
3 (75-100): Pre-Emergent herbicidal rating, F Smartweed (Smartweed [13]; [25]) | Pre-Emergent herbicidal rating, F Smartweed (Smartweed [13]; [24]) | Pre-Emergent herbicidal rating, E Lambsquarter (Lambsquarter [15]; [25]) | Pre-Emergent herbicidal rating, E Lambsquarter (Lambsquarter [15]; [24]) | Pre-Emergent herbicidal rating, D Morningglory (Morningglory [16]; [25]) | Pre-Emergent herbicidal rating, D Morningglory (Morningglory [16]; [24]) | Pre-Emergent herbicidal rating, C Velvetleaf (Velvetleaf [17]; [25]) | Pre-Emergent herbicidal rating, C Velvetleaf (Velvetleaf [17]; [24]) | Pre-Emergent herbicidal rating, K Barnyard grass (Barnyard grass [20]; [25]) | Pre-Emergent herbicidal rating, K Barnyard grass (Barnyard grass [20]; [24])
2 (50-74): Post-Emergent herbicidal rating, E Lambsquarter (Lambsquarter [4]; [24]) | Post-Emergent herbicidal rating, D Morningglory (Morningglory [5]; [23]) | Pre-Emergent herbicidal rating, J Bromus tectorum (Bromus tectorum [12]; [24]) | Pre-Emergent herbicidal rating, A Canada Thistle (Canada Thistle [22]; [24])
1 (25-49): Post-Emergent herbicidal rating, F Smartweed (Smartweed [2]; [23]) | Post-Emergent herbicidal rating, E Lambsquarter (Lambsquarter [4]; [23]) | Post-Emergent herbicidal rating, C Velvetleaf (Velvetleaf [6]; [23]) | Post-Emergent herbicidal rating, C Velvetleaf (Velvetleaf [6]; [24]) | Post-Emergent herbicidal rating, B Cocklebur (Cocklebur [7]; [23]) | Post-Emergent herbicidal rating, B Cocklebur (Cocklebur [7]; [24]) | Post-Emergent herbicidal rating, K Barnyard grass (Barnyard grass [9]; [24]) | Post-Emergent herbicidal rating, A Canada Thistle (Canada Thistle [11]; [23]) | Post-Emergent herbicidal rating, A Canada Thistle (Canada Thistle [11]; [24]) | Pre-Emergent herbicidal rating, J Bromus tectorum (Bromus tectorum [12]; [25])
3 (75-99): Post-Emergent herbicidal rating, D Morningglory (Morningglory [5]; [24])
0 (0-24): Post-Emergent herbicidal rating, J Bromus tectorum (Bromus tectorum [1]; [23]) | Post-Emergent herbicidal rating, J Bromus tectorum (Bromus tectorum [1]; [24]) | Post-Emergent herbicidal rating, F Smartweed (Smartweed [2]; [24]) | Post-Emergent herbicidal rating, H Quackgrass (Quackgrass [3]; [23]) | Post-Emergent herbicidal rating, H Quackgrass (Quackgrass [3]; [24]) | Post-Emergent herbicidal rating, G Nutsedge (Nutsedge [8]; [23]) | Post-Emergent herbicidal rating, G Nutsedge (Nutsedge [8]; [24]) | Post-Emergent herbicidal rating, K Barnyard grass (Barnyard grass [9]; [23]) | Post-Emergent herbicidal rating, I Johnsongrass (Johnsongrass [10]; [23]) | Post-Emergent herbicidal rating, I Johnsongrass (Johnsongrass [10]; [24]) | Pre-Emergent herbicidal rating, H Quackgrass (Quackgrass [14]; [25]) | Pre-Emergent herbicidal rating, H Quackgrass (Quackgrass [14]; [24]) | Pre-Emergent herbicidal rating, B Cocklebur (Cocklebur [18]; [25]) | Pre-Emergent herbicidal rating, B Cocklebur (Cocklebur [18]; [24]) | Pre-Emergent herbicidal rating, G Nutsedge (Nutsedge [19]; [25]) | Pre-Emergent herbicidal rating, G Nutsedge (Nutsedge [19]; [24]) | Pre-Emergent herbicidal rating, I Johnsongrass (Johnsongrass [21]; [25]) | Pre-Emergent herbicidal rating, I Johnsongrass (Johnsongrass [21]; [24]) | Pre-Emergent herbicidal rating, A Canada Thistle (Canada Thistle [22]; [25])

CCOC(=O)c1cn(C)nc1-c1ccc(C(F)(F)F)cc1 [Example 17]
0 (0-24): Post-Emergent herbicidal rating, J Bromus tectorum (Bromus tectorum [1]; [23]) | Post-Emergent herbicidal rating, F Smartweed (Smartweed [2]; [23]) | Post-Emergent herbicidal rating, H Quackgrass (Quackgrass [3]; [23]) | Post-Emergent herbicidal rating, E Lambsquarter (Lambsquarter [4]; [23]) | Post-Emergent herbicidal rating, D Morningglory (Morningglory [5]; [23]) | Post-Emergent herbicidal rating, C Velvetleaf (Velvetleaf [6]; [23]) | Post-Emergent herbicidal rating, B Cocklebur (Cocklebur [7]; [23]) | Post-Emergent herbicidal rating, G Nutsedge (Nutsedge [8]; [23]) | Post-Emergent herbicidal rating, K Barnyard grass (Barnyard grass [9]; [23]) | Post-Emergent herbicidal rating, I Johnsongrass (Johnsongrass [10]; [23]) | Pre-Emergent herbicidal rating, H Quackgrass (Quackgrass [14]; [25]) | Pre-Emergent herbicidal rating, D Morningglory (Morningglory [16]; [25]) | Pre-Emergent herbicidal rating, C Velvetleaf (Velvetleaf [17]; [25]) | Pre-Emergent herbicidal rating, B Cocklebur (Cocklebur [18]; [25]) | Pre-Emergent herbicidal rating, I Johnsongrass (Johnsongrass [21]; [25]) | Pre-Emergent herbicidal rating, A Canada Thistle (Canada Thistle [22]; [25])
2 (50-74): Pre-Emergent herbicidal rating, F Smartweed (Smartweed [13]; [25]) | Pre-Emergent herbicidal rating, K Barnyard grass (Barnyard grass [20]; [25])
3 (75-100): Pre-Emergent herbicidal rating, E Lambsquarter (Lambsquarter [15]; [25])
1 (25-49): Post-Emergent herbicidal rating, A Canada Thistle (Canada Thistle [11]; [23]) | Pre-Emergent herbicidal rating, J Bromus tectorum (Bromus tectorum [12]; [25]) | Pre-Emergent herbicidal rating, G Nutsedge (Nutsedge [19]; [25])

Cn1cc(C(=O)OCC2CC(F)(F)C2(F)F)c(-c2cccc(C(F)(F)F)c2)n1 (centres unmarked) [Example 18]
2 (50-74): Post-Emergent herbicidal rating, E Lambsquarter (Lambsquarter [4]; [24]) | Post-Emergent herbicidal rating, D Morningglory (Morningglory [5]; [24]) | Post-Emergent herbicidal rating, C Velvetleaf (Velvetleaf [6]; [24]) | Pre-Emergent herbicidal rating, F Smartweed (Smartweed [13]; [24]) | Pre-Emergent herbicidal rating, E Lambsquarter (Lambsquarter [15]; [24])
0 (0-24): Post-Emergent herbicidal rating, G Nutsedge (Nutsedge [8]; [24]) | Pre-Emergent herbicidal rating, H Quackgrass (Quackgrass [14]; [24]) | Pre-Emergent herbicidal rating, B Cocklebur (Cocklebur [18]; [24]) | Pre-Emergent herbicidal rating, G Nutsedge (Nutsedge [19]; [24]) | Pre-Emergent herbicidal rating, I Johnsongrass (Johnsongrass [21]; [24])
1 (25-49): Post-Emergent herbicidal rating, J Bromus tectorum (Bromus tectorum [1]; [24]) | Post-Emergent herbicidal rating, F Smartweed (Smartweed [2]; [24]) | Post-Emergent herbicidal rating, H Quackgrass (Quackgrass [3]; [24]) | Post-Emergent herbicidal rating, B Cocklebur (Cocklebur [7]; [24]) | Post-Emergent herbicidal rating, K Barnyard grass (Barnyard grass [9]; [24]) | Post-Emergent herbicidal rating, I Johnsongrass (Johnsongrass [10]; [24]) | Post-Emergent herbicidal rating, A Canada Thistle (Canada Thistle [11]; [24]) | Pre-Emergent herbicidal rating, J Bromus tectorum (Bromus tectorum [12]; [24]) | Pre-Emergent herbicidal rating, D Morningglory (Morningglory [16]; [24]) | Pre-Emergent herbicidal rating, C Velvetleaf (Velvetleaf [17]; [24]) | Pre-Emergent herbicidal rating, K Barnyard grass (Barnyard grass [20]; [24]) | Pre-Emergent herbicidal rating, A Canada Thistle (Canada Thistle [22]; [24])

C=C(Cl)COC(=O)c1cn(C)nc1-c1cccc(C(F)(F)F)c1 [Example 19]
3 (75-100): Pre-Emergent herbicidal rating, E Lambsquarter (Lambsquarter [15]; [24])
2 (50-74): Pre-Emergent herbicidal rating, F Smartweed (Smartweed [13]; [24]) | Pre-Emergent herbicidal rating, K Barnyard grass (Barnyard grass [20]; [24])
1 (25-49): Post-Emergent herbicidal rating, F Smartweed (Smartweed [2]; [24]) | Post-Emergent herbicidal rating, E Lambsquarter (Lambsquarter [4]; [24]) | Post-Emergent herbicidal rating, D Morningglory (Morningglory [5]; [24]) | Post-Emergent herbicidal rating, C Velvetleaf (Velvetleaf [6]; [24]) | Post-Emergent herbicidal rating, B Cocklebur (Cocklebur [7]; [24]) | Post-Emergent herbicidal rating, K Barnyard grass (Barnyard grass [9]; [24]) | Post-Emergent herbicidal rating, I Johnsongrass (Johnsongrass [10]; [24]) | Post-Emergent herbicidal rating, A Canada Thistle (Canada Thistle [11]; [24]) | Pre-Emergent herbicidal rating, J Bromus tectorum (Bromus tectorum [12]; [24]) | Pre-Emergent herbicidal rating, H Quackgrass (Quackgrass [14]; [24]) | Pre-Emergent herbicidal rating, D Morningglory (Morningglory [16]; [24]) | Pre-Emergent herbicidal rating, C Velvetleaf (Velvetleaf [17]; [24]) | Pre-Emergent herbicidal rating, G Nutsedge (Nutsedge [19]; [24]) | Pre-Emergent herbicidal rating, I Johnsongrass (Johnsongrass [21]; [24]) | Pre-Emergent herbicidal rating, A Canada Thistle (Canada Thistle [22]; [24])
0 (0-24): Post-Emergent herbicidal rating, J Bromus tectorum (Bromus tectorum [1]; [24]) | Post-Emergent herbicidal rating, H Quackgrass (Quackgrass [3]; [24]) | Post-Emergent herbicidal rating, G Nutsedge (Nutsedge [8]; [24]) | Pre-Emergent herbicidal rating, B Cocklebur (Cocklebur [18]; [24])

Reference: US4245106A, “Process for the preparation of 1-alkyl-3-aryl-4-pyrazolecarboxylates” (Monsanto Company, priority 1979, dated 1981)
